Test results published in patent US7723523B2, “Tetrahydropyridothiophenes” (4SC AG, priority 2004, dated 2010).

How the values were obtained:
[1] = system: RKO (RKOp27) human colon adenocarcinoma cells; test: Alamar Blue cell viability assay, anti-proliferative/cytotoxic activity on proliferating RKOp27 cells; format: cell-based; settings: absence of Ponasterone A, 72 hours incubation, read-out: IC50 RKO p27 proliferating
Description: The anti-proliferative/cytotoxic activity of the compounds described herein, can be tested on subclones of RKO (RKOp27) human colon adenocarcinoma cells (Schmidt et al., Oncogene 19, 2423-2429; 2000) using the Alamar Blue cell viability assay (described in O'Brien et al. Eur J Biochem 267, 5421-5426, 2000). The compounds are dissolved as 20 mM solutions in dimethylsulfoxide (DMSO) and subsequently diluted in semi-logarithmic steps. DMSO dilutions are further diluted 1:100 into Dulbecco's modified Eagle's medium (DMEM) containing 10% fetal calf serum to a final concentration twice as much as the final concentration in the test. RKO subclones are seeded into 96 well flat bottom plates at a density of 4000 cells per well in a volume of 50 μl per well. 24 hours after seeding 50 μl each of the compound dilutions in DMEM are added into each well of the 96 well plate. Each compound dilution is tested as quadruplicates. Wells containing untreated control cells are filled with 50 μl DMEM containing 1% DMSO. The cells are then incubated with the substances for 72 hours at 37° C. in a humidified atmosphere containing 5% carbon dioxide. To determine the viability of the cells, 10 μl of an Alamar Blue solution (Biosource) are added and the fluorescence is measured at an extinction of 544 nm and an emission of 590 nm. For the calculation of the cell viability the emission value from untreated cells is set as 100% viability and the emission rates of treated cells are set in relation to the values of untreated cells. Viabilities are expressed as % values.
The corresponding IC50 values of the compounds for anti-proliferative/cytotoxic activity are determined from the concentration-effect curves.
Representative IC50 values for anti-proliferation/cytotoxicity determined in the aforementioned assay are described in the table A (1st column), in which the numbers of the compound correspond to the numbers of the examples.

[2] = system: RKO colon adenocarcinoma cells (RKOp27) arrested by expression of ectopic p27Kip1; test: Alamar Blue cell viability assay on RKOp27 cells arrested by Ponasterone A-induced p27Kip1 (cell cycle specific mode of action); format: cell-based; settings: Homo sapiens, RKOp27, 72 h, cells arrested by p27Kip1 induced with 10 μM Ponasterone A, 72 hours incubation, read-out: IC50 RKO p27 arrested
Description: To determine the cell cycle specific mode of action, subclones of RKO colon adenocarcinoma cells (RKOp27 or RKOp21 as described by Schmidt et al. in Oncogene 19, 2423-2429; 2000) are seeded into 96 well flat bottom plates at a density of 16000 cells per well in a volume of 50 μl per well in DMEM growth medium with 10% FCS containing 10 μM Ponasterone A. 24 hours after seeding 50 μl each of the compound dilutions in DMEM are added into each well of the 96 well plate. Each compound dilution is tested as quadruplicates. Wells containing untreated control cells are filled with 50 μl DMEM containing 1% DMSO. The cells are then incubated with the substances for 72 hours at 37° C. in a humidified atmosphere containing 5% carbon dioxide. To determine the viability of the cells, 10 μl of an Alamar Blue solution (Biosource) are added and the fluorescence is measured at an extinction of 544 nm and an emission of 590 nm. For the calculation of the cell viability the emission value from untreated cells is set as 100% viability and the emission rates of treated cells are set in relation to the values of untreated cells. Viabilities are expressed as % values. Viability is compared of proliferating cells grown in the absence of the inducer Ponasterone A, versus viability of cells arrested by the expression of ectopic p27Kip1 induced by Ponasterone A. The data of this experimental setting are summarized in table A (2nd column).

| Structure (SMILES) | IC50 [1] | IC50 [2] |
| --- | --- | --- |
| CCOC(=O)N1CCc2c(sc(NC(=O)/C=C/c3c(F)ccc(F)c3F)c2C#N)C1 [Example 68, 3-Cyano-2-[(E)-3-(2,3,6-trifluoro-phenyl)-allanoylamino]-4,7-dihydro-5H-thieno[2,3-c]pyridine-6-carboxylic acid ethyl ester] | ≤ 2 µM | ≥ 100 µM |
| CCOC(=O)N1CCc2c(sc(NC(=O)/C=C/c3ccccc3OC(C)=O)c2C#N)C1 [Example 69, 2-[(E)-3-(2-Acetoxy-phenyl)-allanoylamino]-3-cyano-4,7-dihydro-5H-thieno[2,3-c]pyridine-6-carboxylic acid ethyl ester] | ≤ 0.5 µM | ≥ 50 µM |
| CCOC(=O)N1CCc2c(sc(NC(=O)/C=C/c3ccc(OC)cc3F)c2C#N)C1 [Example 70, 3-Cyano-2-[(E)-3-(2-fluoro-4-methoxy-phenyl)-allanoylamino]β4,7-dihydro-5H-thieno[2,3-c]pyridine-6-carboxylic acid ethyl ester] | ≤ 2 µM | ≥ 100 µM |
| CCOC(=O)N1CCc2c(sc(NC(=O)/C=C/c3csc4ccccc34)c2C#N)C1 [Example 71, 2-((E)-3-Benzo[b]thiophen-3-yl-allanoylamino)-3-cyano-[4,7-d]hydro-5H-thieno[2,3-c]pyridine-6-carboxylic acid ethyl ester] | ≤ 2 µM | ≥ 100 µM |
| CCOC(=O)N1CCc2c(sc(NC(=O)/C=C/c3ccc(Cl)s3)c2C#N)C1 [Example 72, 2-[(E)-3-(5-Chloro-thiophen-2-yl)-allanoylamino]-3-cyano-4,7-dihydro-5H-thieno[2,3-c]pyridine-6-carboxylic acid ethyl ester] | ≤ 2 µM | ≥ 100 µM |
| CCOC(=O)N1CCc2c(sc(NC(=O)/C=C/c3ccccc3-c3ccccc3)c2C#N)C1 [Example 73, 2-((E)-3-Biphenyl-2-yl-allanoylamino)-3-cyano-4,7-dihydro-5H-thieno[2,3-c]pyridine-6-carboxylic acid ethyl ester] | ≤ 2 µM | ≥ 100 µM |
| CCOC(=O)N1CCc2c(sc(NC(=O)/C=C/c3ccc(C)o3)c2C#N)C1 [Example 74, 3-Cyano-2-[(E)-3-(5-methyl-furan-2-yl)-allanoylamino]-4,7-dihydro-5H-thieno[2,3-c]pyridin-6-carboxylic acid ethyl ester] | ≤ 2 µM | ≥ 100 µM |
| CCOC(=O)N1CCc2c(sc(NC(=O)/C=C/c3sccc3C)c2C#N)C1 [Example 75, 3-Cyano-2-[(E)-3-(3-methyl-thiophen-2-yl)-allanoylamino]-4,7-dihydro-5H-thieno[2,3-c]pyridine-6-carboxylic acid ethyl ester] | ≤ 2 µM | ≥ 100 µM |
| CCOC(=O)N1CCc2c(sc(NC(=O)/C=C/c3ccc(C)s3)c2C#N)C1 [Example 76, 3-Cyano-2-[(E)-3-(5-methyl-thiophen-2-yl)-allanoylamino]-4,7-dihydro-5H-thieno[2,3-c]pyridine-6-carboxylic acid ethyl ester] | ≤ 2 µM | ≥ 100 µM |
| CCOC(=O)N1CCc2c(sc(NC(=O)/C=C/c3ccc(CC)o3)c2C#N)C1 [Example 77, 3-Cyano-2-[(E)-3-(5-ethyl-furan-2-yl)-allanoylamino]-4,7-dihydro-5H-thieno[2,3-c]pyridine-6-carboxylic acid ethyl ester] | ≤ 0.5 µM | ≥ 50 µM |
| CCOC(=O)N1CCc2c(sc(NC(=O)/C=C/c3ccc(Cl)o3)c2C#N)C1 [Example 78, 2-[(E)-3-(5-Chloro-furan-2-yl)-allanoylamino]-3-cyano-4,7-dihydro-5H-thieno[2,3-c]pyridine-6-carboxylic acid ethyl ester] | ≤ 2 µM | ≥ 100 µM |
| CCOC(=O)N1CCc2c(sc(NC(=O)/C=C/c3cc(F)ccc3C)c2C#N)C1 [Example 79, 3-Cyano-2-[(E)-3-(5-fluoro-2-methyl-phenyl)-allanoylamino]-4,7-dihydro-5H-thieno[2,3-c]pyridine-6-carboxylic acid ethyl ester] | ≤ 2 µM | ≥ 100 µM |
| CCOC(=O)N1CCc2c(sc(NC(=O)/C=C/c3cccc(F)c3C)c2C#N)C1 [Example 80, 3-Cyano-2-[(E)-3-(3-fluoro-2-methyl-phenyl)-allanoylamino]-4,7-dihydro-5H-thieno[2,3-c]pyridine-6-carboxylic acid ethyl ester] | ≤ 2 µM | ≥ 100 µM |
| CCOC(=O)N1CCc2c(sc(NC(=O)/C=C/c3ccccc3CC)c2C#N)C1 [Example 82, 3-Cyano-2-[(E)-3-(2-ethyl-phenyl)-allanoylamino]-4,7-dihydro-5H-thieno[2,3-c]pyridine-6-carboxylic acid ethyl ester] | ≤ 2 µM | ≥ 100 µM |
| CCOC(=O)N1CCc2c(sc(NC(=O)/C=C/c3ccccc3C#N)c2C#N)C1 [Example 83, 3-Cyano-2-[(E)-3-(2-cyano-phenyl)-allanoylamino]-4,7-dihydro-5H-thieno[2,3-c]pyridine-6-carboxylic acid ethyl ester] | ≤ 2 µM | ≥ 100 µM |
| CCOC(=O)N1CCc2c(sc(NC(=O)/C=C/c3cc4ccccc4o3)c2C#N)C1 [Example 84, 2-[(E)-3-Benzofuran-2-yl-allanoylamino]-3-cyano-4,7-dihydro-5H-thieno[2,3-c]pyridine-6-carboxylic acid ethyl ester] | ≤ 0.5 µM | ≥ 50 µM |
| CCOC(=O)N1CCc2c(sc(NC(=O)/C=C/c3ccc(-c4ccccc4)s3)c2C#N)C1 [Example 85, 3-Cyano-2-[(E)-3-(5-phenyl-thiophen-2-yl)-allanoylamino]-4,7-dihydro-5H-thieno[2,3-c]pyridine-6-carboxylic acid ethyl ester] | ≤ 2 µM | ≥ 100 µM |
| CCOC(=O)N1CCc2c(sc(NC(=O)/C=C/c3cccc(C)c3C)c2C#N)C1 [Example 86, 3-Cyano-2-[(E)-3-(2,3-dimethyl-phenyl)-allanoylamino]-4,7-dihydro-5H-thieno[2,3-c]pyridine-6-carboxylic acid ethyl ester] | ≤ 2 µM | ≥ 100 µM |
| CCOC(=O)N1CCc2c(sc(NC(=O)/C=C/c3ccccc3N3CCOCC3)c2C#N)C1 [Example 88, 3-Cyano-2-[(E)-3-(2-morpholin-4-yl-phenyl)-allanoylamino]-4,7-dihydro-5H-thieno[2,3-c]pyridine-6-carboxylic acid ethyl ester] | ≤ 0.5 µM | ≥ 50 µM |
| CCOC(=O)N1CCc2c(sc(NC(=O)/C=C/c3ccc(F)cc3C)c2C#N)C1 [Example 89, 3-Cyano-2-[(E)-3-(4-fluoro-2-methyl-phenyl)-allanoylamino]-4,7-dihydro-5H-thieno[2,3-c]pyridine-6-carboxylic acid ethyl ester] | ≤ 2 µM | ≥ 100 µM |
| CCOC(=O)N1CCc2c(sc(NC(=O)/C=C/c3nn(C)cc3Cl)c2C#N)C1 [Example 90, 2-[(E)-3-(4-Chloro-1-methyl-1H-pyrazol-3-yl)-allanoylamino]-3-cyano-4,7-dihydro-5H-thieno[2,3-c]pyridine-6-carboxylic acid ethyl ester] | ≤ 2 µM | ≥ 100 µM |
| CCOC(=O)N1CCc2c(sc(NC(=O)/C=C/c3ccc(-c4ccccc4)o3)c2C#N)C1 [Example 91, 3-Cyano-2-[(E)-3-(5-phenyl-furan-2-yl)-allanoylamino]-4,7-dihydro-5H-thieno[2,3-c]pyridine-6-carboxylic acid ethyl ester] | ≤ 2 µM | ≥ 100 µM |
| CCOC(=O)N1CCc2c(sc(NC(=O)/C=C/c3ccccc3O)c2C#N)C1 [Example 95, 3-Cyano-2-[(E)-3-(2-hydroxy-phenyl)-allanoylamino]-4,7-dihydro-5H-thieno[2,3-c]pyridine-6-carboxylic acid ethyl ester] | ≤ 2 µM | ≥ 100 µM |
